From patent US20210317090A1, “AMINO ACID DEPLETION AGENTS AS ANTIPROLIFERATIVE AGENTS” (University of Central Florida Research Foundation, Inc., priority 2018, published 2021)

Key:
CHO-MG cells = test: Rescue by exogenous native polyamines in CHO-MG cells; assay type: cell-based, Chinese hamster; conditions: toxic concentration of compound 10 (results not shown)
CHO K1 cells = test: Cytotoxicity dose-response (MTS cell viability) in CHO K1 cells; assay type: cell-based, Chinese hamster
Experimental: CHO K1 Studies. Wild type Chinese hamster ovary (CHO K1) cells were chosen to first study the synthetic compounds' impact on polyamine metabolism. The CHO K1 cell line has high polyamine transport activity and was useful in screening compounds for their polyamine transport inhibitor activity. A dose-response curve was obtained for each compound to determine their toxicity in CHO K1 cells after 48 h incubation. Compound 9 (1666.177) was non-toxic up to the highest dose tested (15 μM).
Regarding the biological studies performed in the following examples, it is noted that CHO K1, CHO-MG, and L3.6pl cells were grown in RPMI 1640 medium supplemented with 10% fetal bovine serum (FBS) and 1% penicillin/streptomycin. All cells were grown at 37° C. under a humidified 5% CO2 atmosphere. Aminoguanidine (1 mM used for CHO K1 and CHOMG cells and 250 μM for L3.6pl) was added to the growth medium to prevent oxidation of the compounds of the bovine serum amine oxidase enzyme that is present in calf serum. The cells used were in early to mid log phase and CHO and CHOMG were plated out at 1000 cells/well, whereas the L3.6pl cells were plated at 500 cells/well in a 96 well plate format.
This example illustrates aspects according to various embodiments pertaining to IC50 determinations and cell viability studies. Cell growth was assayed in sterile 96-well microtiter plates (Costar 3599, Corning, N.Y.). CHO K1 or CHOMG cells were plated at 1,000 cells/70 μL and L3.6pl cells at 500 cells/70 μL. The drug solutions of appropriate concentration in phosphate buffered saline (PBS) were added 10 μL per well after overnight incubation. After drug exposure (e.g., for 48 h for CHO K1 and CHO-MG and 48 h or 72 h for L3.6pl), cell growth was determined by measuring formazan formation from the 3-(4,5dimethylthiazol-2-yl)-5-(3-carboxymethoxyphenyl)-2-(4-sulfenyl)-2H tetrazolium, inner salt (MTS) using SynergyMx Biotek microplate reader for absorbance (490 nm) measurements.^27 All experiments were run in triplicate.

L3.6pl cells = test: Intracellular polyamine and Ant-44 levels (N-dansylation, HPLC) in L3.6pl cells; assay type: cell-based, human; conditions: for Intracellular Putrescine / Intracellular Spermidine / Intracellular Spermine / Intracellular Total Polyamines: 72 hr
Experimental: One explanation for the enhanced potency was that compound 10 (1666.255) increased polyamine import and, as a result, may have increased intracellular Ant-44 levels. To test this hypothesis, L3.6pl cells were dosed with a fixed concentration of Ant-44 (2 μM) alone and in combination with increasing concentrations of compound 10 (1666.255) to explore how this combination therapy affected intracellular polyamine pools and Ant-44 import.
FIG. 7 is an example according to various embodiments, illustrating both single and combination therapies in L3.6pl cells with Ant-44 and compound 10 (1666.255) after 72 h incubation. Polyamine and Ant-44 levels (expressed as nmoles/mg protein) and relative % viability versus an untreated control were observed after 72 h incubation at 37° C. The untreated control was run in parallel and polyamine levels determined in duplicate and % cell viability in triplicate. Ant-44 was dosed at a fixed concentration of 2 μM and compound 10 (1666.255) at increasing concentrations. Cell viability tracked well with total intracellular polyamine levels (sum of putrescine, spermidine and spermine).
It was concluded that compound 10 was neither acting as a PTI nor as a polyamine import agonist. How then could it lead to intracellular polyamine depletion? […] To test this hypothesis, L3.6pl cells were dosed with increasing concentrations of compound 10 (1666.255) without Ant44. If compound 10 (1666.255) was acting on polyamine pools, one should see a reduction in total polyamine levels as well as decreased cell viability in a dose dependent manner upon increasing levels of 10. Therefore, the toxicity of compound 10 and intracellular polyamine levels after 72 h exposure to 10 were measured (FIG. 8).
FIG. 8 is an example according to various embodiments, illustrating intracellular polyamine levels (expressed as nmoles polyamine/mg protein) in L3.6pl cells dosed with increasing concentrations of compound 10 (1666.255) after cells were incubated for 72 h at 37° C. The untreated control was run in parallel and polyamine levels determined in duplicate via N-dansylation and HPLC. The data was averaged and reported as nmol polyamine (PA)/mg protein.
This example illustrates aspects according to various embodiments pertaining to a 72 h experiment with Compound 10 in L3.6pl cells. Ten milliliters of a cell suspension containing L3.6pl human pancreatic cancer cells (50,000 cells/mL) and aminoguanidine (1 mM) were placed in treated plastic Petri dishes (d=9 cm) and incubated overnight at 37° C. After 24 h, the cells were dosed with compound 10 at 2 μM, 5 μM, or 7 μM. (Note: Stock solutions of 10 at 2, 5, and 7 mM were dissolved in phosphate buffered saline (PBS) and were filtered through a 0.2 μm filter prior to use. The experiments were maintained with a total volume of 10.01 mL where 10 mL of the cell suspension was placed in a plastic dish and each compound or the equivalent PBS volume was added to make up the total volume 10.01 mL for each dish. For example, for the control experiment PBS (10 μL) was added to make up the total volume (10 mL+10 μL=10.01 mL). After 72 h incubation, the cells were collected first by pipetting off the supernatant containing floating dead cells from the culture dish as well as media and placing them into 15 mL tubes. The supernatant containing floating cells was centrifuged (4 min at 1,000 rpm). The cell-free supernatant (supernatant #1) was collected into a new 15 mL tube and quantified (˜8.6 mL) and was then stored frozen and was later quantified by LCMS to investigate the media composition of particular polyamine and amino acid analytes. The attached cells on the dish were washed with PBS (5 mL). The PBS wash was removed by suction and additional PBS (2 mL) was added and again suctioned off to provide twice-washed cells still adhered to the dish. Trypsin (2 mL) was then added to each dish and incubated (3-5 min) until all the cells were detached. Fresh media (8 mL) was added to quench the trypsin. […]

In the case of `CC(C)CCN1CCN(C(CNCc2ccccc2)CC2CCCCC2)CC1CC(C)C.Cl.Cl.Cl` (stereo not shown) [Compound 10, Benzyl-{3-cyclohexyl-2-[3-isobutyl-4-(3-methyl-butyl)-piperazin-1-yl]-propyl}-amine trihydrochloride salt], the “rescue of treated cells by native polyamines” value (CHO-MG cells) is reported as “unable to rescue”, the “toxicity of compound alone” value (CHO K1 cells; CHO K1, highest concentration tested (5 μM), 48 h) is reported as “nontoxic” and the IC50 (CHO K1 cells; Cricetulus griseus, CHO K1 cells, 48 h incubation) is reported as 10.8 ± 0.22 µM. For the same compound, the “Intracellular Putrescine” value (L3.6pl cells; 2 μM) was 6.2 ± 0.7 nmol polyamine/mg protein, the “Intracellular Spermidine” value (L3.6pl cells; 2 μM) was 27.1 ± 2.4 nmol polyamine/mg protein and the “Intracellular Spermine” value (L3.6pl cells; 2 μM) was 16.1 ± 0.0 nmol polyamine/mg protein. The “Intracellular Total Polyamines” value (L3.6pl cells; 2 μM) was 49.5 ± 3.1 nmol polyamine/mg protein, the “Intracellular Putrescine” value (L3.6pl cells; 5 μM) was 6.0 ± 0.9 nmol polyamine/mg protein and the “Intracellular Spermidine” value (L3.6pl cells; 5 μM) was 17.6 ± 1.8 nmol polyamine/mg protein. The “Intracellular Spermine” value (L3.6pl cells; 5 μM) was 14.9 ± 1.1 nmol polyamine/mg protein, the “Intracellular Total Polyamines” value (L3.6pl cells; 5 μM) was 38.5 ± 3.4 nmol polyamine/mg protein and the “Intracellular Putrescine” value (L3.6pl cells; 7 μM) was 5.9 ± 0.3 nmol polyamine/mg protein. For the same compound, the “Intracellular Spermidine” value (L3.6pl cells; 7 μM) was 15.6 ± 0.1 nmol polyamine/mg protein, the “Intracellular Spermine” value (L3.6pl cells; 7 μM) was 12.7 ± 0.6 nmol polyamine/mg protein and the “Intracellular Total Polyamines” value (L3.6pl cells; 7 μM) was 34.2 ± 0.9 nmol polyamine/mg protein. For the same compound, the “intracellular level of Ant-44” value (L3.6pl cells; Ant-44 2 μM with compound 10 at 1 μM, 72 h) was 2.08 nmol Ant44/mg protein.
